Common to all, as to assay type: functional
A short description of assay [1]: Antioxidant activity assessed as DPPH scavenging activity after 20 min by spectrophotometry. (In general: DPPH is a stable violet radical that fades when it is reduced.)
Assay [2] concerns Pseudomonas aeruginosa. In words: Antimicrobial activity against Pseudomonas aeruginosa at 1 ug/ul after 24 hr by agar diffusion method.
Assay [3] concerns Escherichia coli. Description: Antimicrobial activity against Escherichia coli at 1 ug/ul after 24 hr by agar diffusion method. For orientation: Agar diffusion results depend on both activity and mobility in agar.
Assay [4] concerns Klebsiella pneumoniae. In words: Antimicrobial activity against Klebsiella pneumoniae at 1 ug/ul after 24 hr by agar diffusion method.
Assay [5] has as its system Bacillus cereus. In words: Antimicrobial activity against Bacillus cereus at 1 ug/ul after 24 hr by agar diffusion method.
Assay [6] concerns Bacillus subtilis. In words: Antimicrobial activity against Bacillus subtilis at 1 ug/ul after 24 hr by agar diffusion method.
In assay [7] the test system is Staphylococcus aureus. In words: Antimicrobial activity against Staphylococcus aureus at 1 ug/ul after 24 hr by agar diffusion method.

Structures are written as SMILES. Values after ≈ are worked out from the molar mass of the structure shown.

Usually IC50 stands for the concentration needed to halve the response being measured. Turning to `Cc1c(-c2ccc(N(C)C)cc2)oc2cc(O)ccc2c1=O`, the IC50 in assay [1] came out at 58.82 µg/mL (≈ 199 µM). Besides, the “growth inhibition (GI)” value in assay [2] amounted to 51%; in assay [3], 29%; in assay [4], 50%; in assay [5], 57%; in assay [6], 50%; in assay [7], 55%.

Turning to `Cc1c(-c2ccc(F)cc2)oc2ccccc2c1=O`, in assay [1], the IC50 is 113.64 µg/mL (≈ 447 µM). Also, the “growth inhibition (GI)” value in assay [2] was 48%; in assay [3], 31%; in assay [4] it was 70%; in assay [5] it was 75%; in assay [6], 81%; in assay [7], 73%.

With `Cc1ccc(-c2oc3ccccc3c(=O)c2C)cc1`, in assay [1], the IC50 was found to be 102.04 µg/mL (≈ 408 µM). Further, the “growth inhibition (GI)” value in assay [2] was 43%; in assay [3] it was 42%; in assay [4], 60%; in assay [5], 62%; in assay [6], 38%; in assay [7], 60%.

As for `Cc1c(-c2ccccc2Cl)oc2ccccc2c1=O`, in assay [1], the IC50 is 192.3 µg/mL (≈ 710 µM). Moreover, the “growth inhibition (GI)” value is 44% in assay [2]; 51% in assay [3]; 59% in assay [4]; 60% in assay [5]; 25% in assay [6]; 57% in assay [7].

In the case of `Cc1c(-c2ccc(N(C)C)cc2)oc2ccccc2c1=O`, the IC50 in assay [1] is 104.16 µg/mL (≈ 373 µM). The “growth inhibition (GI)” value amounted to 46% in assay [2]; 51% in assay [3]; 50% in assay [4]; 50% in assay [5]; 55% in assay [6]; 58% in assay [7].

Consider `COc1ccc2c(=O)c(C)c(-c3ccc(Cl)cc3)oc2c1`, for which, in assay [1], the IC50 was found to be 80.64 µg/mL (≈ 268 µM). Besides, the “growth inhibition (GI)” value in assay [2] was 28%; in assay [3], 28%; in assay [4], 87%; in assay [5], 90%; in assay [6], 46%; in assay [7], 65%.

Turning to `Cc1c(-c2ccc([N+](=O)[O-])cc2)oc2ccccc2c1=O`, the IC50 in assay [1] was 131.57 µg/mL (≈ 468 µM). In addition, the “growth inhibition (GI)” value in assay [2] was determined as 57%; in assay [3], 31%; in assay [4], 85%; in assay [5], 89%; in assay [6] it was 60%; in assay [7] it was 77%.

Regarding `Cc1c(-c2ccccc2O)oc2ccccc2c1=O`, the IC50 in assay [1] worked out at 79.37 µg/mL (≈ 315 µM). For the same compound, the “growth inhibition (GI)” value in assay [2] is given as 43%; in assay [3], 38%; in assay [4] it was 70%; in assay [5], 50%; in assay [6] it was 83%; in assay [7] it was 70%.

For the compound `Cc1c(-c2ccccc2Br)oc2ccccc2c1=O`, the IC50 in assay [1] is 70.42 µg/mL (≈ 223 µM). The “growth inhibition (GI)” value in assay [2] worked out at 42%; in assay [3] it was 34%; in assay [4], 78%; in assay [5], 80%; in assay [6], 39%; in assay [7] it was 81%.

For `O=C1O[C@H]([C@@H](O)CO)C(O)=C1O` [ASCORBIC ACID], the IC50 in assay [1] was 17.6 µg/mL (≈ 99.9 µM).

As for `Cc1c(-c2ccc(Cl)cc2)oc2ccccc2c1=O`, the IC50 in assay [1] was found to be 98.04 µg/mL (≈ 362 µM). Besides, the “growth inhibition (GI)” value in assay [2] turned out to be 47%; in assay [3], 33%; in assay [4] it was 81%; in assay [5] it was 85%; in assay [6], 68%; in assay [7], 74%.

Regarding `COc1ccc(-c2oc3ccccc3c(=O)c2C)cc1`, the IC50 in assay [1] was 100 µg/mL (≈ 376 µM). Besides, the “growth inhibition (GI)” value in assay [2] worked out at 46%; in assay [3], 41%; in assay [4], 60%; in assay [5], 68%; in assay [6], 46%; in assay [7] it was 66%.

For `COc1ccc2c(=O)c(C)c(-c3ccccc3)oc2c1`, the IC50 in assay [1] turned out to be 200 µg/mL (≈ 751 µM). The “growth inhibition (GI)” value in assay [2] is 51%; in assay [3], 34%; in assay [4], 41%; in assay [5], 50%; in assay [6], 63%; in assay [7] it was 59%.

On to `Cc1c(-c2ccc(Br)cc2)oc2ccccc2c1=O`, for which the IC50 in assay [1] was determined as 111.11 µg/mL (≈ 353 µM). Also, the “growth inhibition (GI)” value in assay [2] is 51%; in assay [3], 27%; in assay [4], 72%; in assay [5] it was 62%; in assay [6], 82%; in assay [7], 58%.

As for `Cc1cccc(-c2oc3ccccc3c(=O)c2C)c1`, the IC50 in assay [1] worked out at 250 µg/mL (≈ 999 µM). Moreover, the “growth inhibition (GI)” value in assay [2] is reported as 56%; in assay [3], 50%; in assay [4] it was 70%; in assay [5], 80%; in assay [6], 69%; in assay [7] it was 76%.

On to `COc1ccccc1-c1oc2ccccc2c(=O)c1C`, for which the IC50 in assay [1] is 142.86 µg/mL (≈ 536 µM). Also, the “growth inhibition (GI)” value is 45% in assay [2]; 52% in assay [3]; 62% in assay [4]; 51% in assay [5]; 59% in assay [6]; 61% in assay [7].

As for `Cc1ccccc1-c1oc2ccccc2c(=O)c1C`, the IC50 in assay [1] came out at 156.25 µg/mL (≈ 624 µM). In addition, the “growth inhibition (GI)” value in assay [2] turned out to be 52%; in assay [3], 40%; in assay [4] it was 40%; in assay [5] it was 50%; in assay [6] it was 49%; in assay [7] it was 53%.

For `Cc1c(-c2ccccc2F)oc2ccccc2c1=O`, the IC50 in assay [1] is 208.3 µg/mL (≈ 819 µM). Moreover, the “growth inhibition (GI)” value in assay [2] is reported as 47%; in assay [3], 47%; in assay [4] it was 52%; in assay [5], 60%; in assay [6], 26%; in assay [7], 55%.

On to `Cc1c(-c2ccccc2)oc2ccccc2c1=O` [3-METHYL-2-PHENYL-4H-CHROMEN-4-ONE], for which the IC50 in assay [1] was found to be 106.38 µg/mL (≈ 450 µM). The “growth inhibition (GI)” value amounted to 48% in assay [2]; 41% in assay [3]; 75% in assay [4]; 80% in assay [5]; 44% in assay [6]; 47% in assay [7].

As for `Cc1c(-c2ccc(O)cc2)oc2ccccc2c1=O`, the IC50 in assay [1] turned out to be 104 µg/mL (≈ 412 µM). In addition, the “growth inhibition (GI)” value came out at 37% in assay [2]; 47% in assay [3]; 80% in assay [4]; 81% in assay [5]; 56% in assay [6]; 74% in assay [7].

Consider `COc1cccc(-c2oc3ccccc3c(=O)c2C)c1`, for which the IC50 in assay [1] was determined as 156.25 µg/mL (≈ 587 µM). Also, the “growth inhibition (GI)” value came to 59% in assay [2]; 50% in assay [3]; 40% in assay [4]; 65% in assay [5]; 74% in assay [6]; 43% in assay [7].

Source of the values: ChEMBL document CHEMBL3045363, “Synthesis of 3-methylflavones and their antioxidant and antibacterial activities” (Med Chem Res, 2012).
